The source of these data is PubChem BioAssay AID624454 (Sanford-Burnham Center for Chemical Genomics, 2012).

Where “and” joins values, the source holds several entries; their conditions need not be identical. Equal values may be shown once. Calls of active or inactive are those of the source.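 How the source made its calls: active means EC50 of 10 µM or lower; inactive means the rest.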

The test deals with H9c2 cardiomyocytes, 2-deoxyglucose injury, ATP luminescence, 2 h. The test is described as follows: cardioprotective modulators, 2-DG ATP loss – H9c2 cells, ATP luminescence, set 2, SAR follow-up (AID 624454).
In the case of `COc1ccc2c(c1OC)C(=O)N1c3ccccc3C(=O)N(c3cccc(Br)c3)C21` (configuration not stated), the EC50 (protection from 2-deoxyglucose ATP loss, increase) is 28.4 µM (inactive) and > 79 µM (inactive).

As for `COc1ccc2c(c1OC)C(=O)N1c3ccccc3C(=O)N(c3ccc(C)cc3)C21` (configuration not stated), the EC50 (protection from 2-deoxyglucose ATP loss, increase) was 29.1 µM (inactive).

As for `O=C1c2ccccc2N2C(=O)c3ccccc3C2N1c1cccc(Br)c1` (configuration not stated), the EC50 (protection from 2-deoxyglucose ATP loss, increase) was > 79 µM (inactive).

As for `CC(=O)c1cccc(NC(=O)c2cc(-c3ccccc3)nc3ccccc23)c1`, the EC50 (protection from 2-deoxyglucose ATP loss, increase) was 33.5 µM (inactive).

As to `COc1cccc(NC(=O)c2cc(-c3cc(OC)c(OC)c(OC)c3)nc3ccccc23)c1`, the EC50 (protection from 2-deoxyglucose ATP loss, increase) is > 79 µM (inactive).

For `COc1cccc(CNC(=O)c2cc(-c3ccc(OC)c(OC)c3)nc3ccccc23)c1`, the EC50 (protection from 2-deoxyglucose ATP loss, increase) is 18.5 µM (inactive).

For the molecule `COc1ccc2c(c1OC)C(=O)N1c3ccccc3C(=O)N(c3ccc(C(C)(C)C)cc3)C21` (configuration not stated), the EC50 (protection from 2-deoxyglucose ATP loss, increase) was > 79 µM (inactive).

With `CCN(CC(=O)Nc1ccc(F)cc1)C(=O)c1cc(-c2cccs2)nn1-c1ccccc1`, the EC50 (protection from 2-deoxyglucose ATP loss, increase) was 36.1 µM (inactive).

Turning to `COc1ccc(-c2cc(C(=O)Nc3cccc(C(C)=O)c3)c3ccccc3n2)cc1`, the EC50 (protection from 2-deoxyglucose ATP loss, increase) is > 79 µM (inactive).

For the molecule `COc1cccc(CNC(=O)c2cc(-c3cc(OC)c(OC)c(OC)c3)nc3ccccc23)c1`, the EC50 (protection from 2-deoxyglucose ATP loss, increase) was 27.4 µM (inactive).

With `COc1cc(-c2cc(C(=O)Nc3cccc(C)c3)c3ccccc3n2)cc(OC)c1OC`, the EC50 (protection from 2-deoxyglucose ATP loss, increase) is > 79 µM (inactive).

In the case of `CCN(CC(=O)Nc1ccc(OC)cc1)C(=O)c1cc(-c2cccs2)nn1-c1ccccc1`, the EC50 (protection from 2-deoxyglucose ATP loss, increase) was 16.1 µM (inactive) and 20.5 µM (inactive).

On to `COc1ccc2c(c1OC)C(=O)N1c3ccccc3C(=O)N(c3ccccc3)C21` (configuration not stated), for which the EC50 (protection from 2-deoxyglucose ATP loss, increase) was 31.9 µM (inactive).

`COc1cc(-c2cc(C(=O)Nc3cccc(Cl)c3)c3ccccc3n2)cc(OC)c1OC`: the EC50 (protection from 2-deoxyglucose ATP loss, increase) is > 79 µM (inactive).

`COc1cc(-c2cc(C(=O)Nc3ccc(C(C)=O)cc3)c3ccccc3n2)cc(OC)c1OC`: the EC50 (protection from 2-deoxyglucose ATP loss, increase) is > 79 µM (inactive).

In the case of `COc1ccc(N2C(=O)c3ccccc3N3C(=O)c4c(ccc(OC)c4OC)C23)cc1` (configuration not stated), the EC50 (protection from 2-deoxyglucose ATP loss, increase) is 58.4 µM (inactive).

`COc1cc(-c2cc(C(=O)Nc3cccc(F)c3)c3ccccc3n2)cc(OC)c1OC`: the EC50 (protection from 2-deoxyglucose ATP loss, increase) is > 79 µM (inactive).

With `O=C1c2ccccc2N2C(=O)c3ccccc3C2N1c1ccccc1` (configuration not stated), the EC50 (protection from 2-deoxyglucose ATP loss, increase) was > 79 µM (inactive).

Take `COc1cccc(-c2cc(C(=O)Nc3cccc(C(C)=O)c3)c3ccccc3n2)c1`: the EC50 (protection from 2-deoxyglucose ATP loss, increase) is 37.3 µM (inactive).

As for `COc1ccc2c(c1OC)C(=O)N1c3ccccc3C(=O)N(c3cccc(F)c3)C21` (configuration not stated), the EC50 (protection from 2-deoxyglucose ATP loss, increase) was 41.1 µM (inactive).

`COc1ccc2c(c1OC)C(=O)N1c3ccccc3C(=O)N(c3cccc(C)c3)C21` (configuration not stated): the EC50 (protection from 2-deoxyglucose ATP loss, increase) is 53.3 µM (inactive).

On to `COc1ccc(NC(=O)c2cc(-c3cc(OC)c(OC)c(OC)c3)nc3ccccc23)cc1`, for which the EC50 (protection from 2-deoxyglucose ATP loss, increase) was > 79 µM (inactive).

On to `CCN(CC(=O)Nc1ccc(OC)cc1)C(=O)c1cc(-c2cc(OC)c(OC)c(OC)c2)nc2ccccc12`, for which the EC50 (protection from 2-deoxyglucose ATP loss, increase) was 29.8 µM (inactive).

As to `COc1cc(-c2cc(C(=O)Nc3cccc(C(C)=O)c3)c3cc(Cl)ccc3n2)cc(OC)c1OC`, the EC50 (protection from 2-deoxyglucose ATP loss, increase) is > 79 µM (inactive).

With `COc1ccc2c(c1OC)C(=O)N1c3ccccc3C(=O)N(Cc3cccc(Cl)c3)C21` (configuration not stated), the EC50 (protection from 2-deoxyglucose ATP loss, increase) is 37.9 µM (inactive).

As for `COc1ccc2c(c1OC)C(=O)N1c3ccccc3C(=O)N(c3ccc(Br)cc3)C21` (configuration not stated), the EC50 (protection from 2-deoxyglucose ATP loss, increase) was 11.3 µM (inactive).

Regarding `COc1ccc2c(c1OC)C(=O)N1c3ccccc3C(=O)N(c3cccc(Cl)c3)C21` (configuration not stated), the EC50 (protection from 2-deoxyglucose ATP loss, increase) is 45 µM (inactive).

As for `COc1ccc2c(c1OC)C(=O)N1c3ccccc3C(=O)N(c3cccc(C(F)(F)F)c3)C21` (configuration not stated), the EC50 (protection from 2-deoxyglucose ATP loss, increase) was > 79 µM (inactive).

Consider `COc1ccc2c(c1OC)C(=O)N1c3ccccc3C(=O)N(Cc3ccccc3Cl)C21` (configuration not stated), for which the EC50 (protection from 2-deoxyglucose ATP loss, increase) is 12.8 µM (inactive).

Consider `CCN(CC(=O)Nc1ccccc1)C(=O)c1cc(-c2cccs2)nn1-c1ccccc1`, for which the EC50 (protection from 2-deoxyglucose ATP loss, increase) is > 79 µM (inactive).

For the molecule `CCOC(=O)c1cccc(NC(=O)c2cc(-c3cc(OC)c(OC)c(OC)c3)nc3ccccc23)c1`, the EC50 (protection from 2-deoxyglucose ATP loss, increase) is > 79 µM (inactive).

Take `COc1cc(-c2cc(C(=O)Nc3cccc(C(F)(F)F)c3)c3ccccc3n2)cc(OC)c1OC`: the EC50 (protection from 2-deoxyglucose ATP loss, increase) was > 79 µM (inactive).

On to `COc1cccc(N2C(=O)c3ccccc3N3C(=O)c4c(ccc(OC)c4OC)C23)c1` (configuration not stated), for which the EC50 (protection from 2-deoxyglucose ATP loss, increase) is 78 µM (inactive).

Regarding `COc1ccc(-c2cc(C(=O)Nc3cccc(C(C)=O)c3)c3ccccc3n2)cc1OC`, the EC50 (protection from 2-deoxyglucose ATP loss, increase) was 42.8 µM (inactive).

As for `COc1cc(-c2cc(C(=O)Nc3ccccc3)c3ccccc3n2)cc(OC)c1OC`, the EC50 (protection from 2-deoxyglucose ATP loss, increase) was > 79 µM (inactive).

As to `COc1cc(-c2cc(C(=O)Nc3cccc(C(C)=O)c3)c3ccccc3n2)cc(OC)c1OC`, the EC50 (protection from 2-deoxyglucose ATP loss, increase) was 13.7 µM (inactive) and 14.8 µM (inactive).

As for `COc1cccc(N2C(=O)c3ccccc3N3C(=O)c4ccccc4C23)c1` (configuration not stated), the EC50 (protection from 2-deoxyglucose ATP loss, increase) was > 79 µM (inactive).
